Measured values reported in patent publication US5369030A, “Method of inducing cellular differentiations and altering cell phenotype using ceramide analogs” (Duke University, priority 1992, dated 1994).
Where two headings read alike, the source gives them in different places.

How the values were obtained:
HL-60 cells [1] = test: HL-60 cell growth/proliferation, cells counted with a hemocytometer; format: cell-based, human; settings: for cell density / inhibition of cell growth (in words): Example 3C; for cell density: starting density 2×10^5 cells/ml; for inhibition of cell growth (in words): time course to 108 hours
Procedure: (§1) Human myelocytic leukemia HL-60 cells (20-45 passages (American Type Culture Collection, Rockville, Md., accession no. CCL 240) were obtained and grown in RPMI 1640 medium (Sigma Chemical Co., St. Louis, Mo.) containing 10% fetal calf serum at 37° C. in 5% CO2 incubator at a cell density of 2×10^5 cells/mi. The cells were washed once with phosphate buffered saline (PBS) and resuspended in serum-free media containing insulin (5 mg/liter) and transferrin (5 mg/liter) for 2-3 hours before treatment with various compounds.
HL-60 cells were treated with 3 μM of Cn-L-t-APPD with acyl chain lengths of C6, C8, C10, C12, C14, C16, and C18 (m=4, 6, 8, 10, 12, 14 and 16) in fresh ehtanol solution or with an ethanol vehicle and cell growth was determined following three days of treatment. Cell growth was quantified using a hemocytometer. Cell viability was judged by the ability to exclude trypan blue dye. Viability was always more than 80% unless otherwise described.
HL-60 cells (starting cell density of 2×10^5 cells/ml) were treated with different concentrations of C14-L-t-APPD and cells were counted following 24 and 72 hours of treatment. The results are representative of three experiments. A 1μM dose of C14-L-t-APPD had little or no effect on cell growth at 24 or 72 hours (approximately 105% and 130% of control, respectively). A 2μM dose inhibited cell growth to approximately 65% of the control at both 24 and 72 hours. […] The IC50% was approximately 2 μM (10 fmol/cell). IC50% is the concentration of test compound that causes 50% inhibition of cell growth in comparison with controls. Thus, similar to results with C2-ceramide, C14-APPD inhibited cell proliferation at different durations of treatment.
HL-60 cells (starting cell density of 2×10^5 cells/ml) were treated with 3 μM Cn-L-t-APPD derivatives with N-acyl chain lengths of C6, C8, C10, C12, C14, C16, and C18 (m=4,6,8,10, 12, 14, and 16) and cells were counted at 0, 12, 36, 60, 84 and 108 hours post treatment. The results are representative of 3 experiments.
N-acyl derivatives of 2-amino-1-(4'-nitrophenyl)-1,3-propanediol (Cn-D-t-ANPPD) were tested to determine the effects of chain length on HL-60 cell growth as described in Examples 3 A. HL-60 cells (at a starting cell density of 2×10^5 cells/ml) were treated with 3 μM of the diff analogs (C6, C8, C10, C12, C14, C16 and C18) of Cn-D-t-ANPPD, and cell growth was determined at three days. The control received no Cn-D-t-ANPPD. Treatment of HL-60 cells with C2-ceramide is included for comparison.
HL-60 cells were treated with the indicated concentrations and cell growth was determined following three days of treatment as described in Example 3B.
The suitability of phenylaminopropanediol derivatives as analogs of ceramide allowed further investigation of the structural requirements for ceramide-mediated biology. For these experiments, C14 (N-myristoyl) derivatives of different phenylaminoalcohols were synthesized and examined for their biologic activity. HL-60 cells (starting cell density of 2×10^5 cells/ml) were treated with 3 μM of C14 derivatives C14-L-t-APPD, C14-D-t-ANPPD, C14-D-e-APP-1, C14-L-e-APP-1, C14-APP-3 and C14-D-APP3. The structures of these compounds are provided in Table I. Cell growth was determined at 3 days as described in Example 3A. The results shown are averages of two determinations, and are representative of five different experiments.
and C14-L-e-APP-1 HL-60 cells were treated as described in Example 3B. growth was determined after 3 days of treatment.

HL-60 cells [2] = test: HL-60 differentiation, H2O2 generation; format: cell-based, human; settings: for H2O2 generation: 2 μM C2-ceramide alone
Procedure: as §1
Therefore, 3 μM C14-L-t-APPD was applied to HL-60 cells either alone or in combination with subthreshold levels (0.3 nM) of 1,25-dihydroxyvitamin D3 (D3), and cell differentiation was determined at 60 and 108 hours following treatment by quantitating […] generation, a marker of HL-60 differentiation. Subthreshold levels of D3 refers to levels of D3 that are too low to induce differentiation of HL60 cells.
H2 O2 production was quantitated as described in Goodwin, B. J. and Weinberg, J. B., J. Clin. Invest. 70:699-706 (1982) and Pick, E. and Mizel, D. J. Immunol. Methods 46: 211-226 (1981). For comparison, HL60 cell differentiation obtained with 2 μM C2-ceramide alone and 0.3 nM vitamin D3 are were also determined.

[3] = Example 5, 3 μM C14 derivatives, 3 days
[4] = Example 4A, Table II, 3 μM Cn-D-t-ANPPD (C2-ceramide concentration not given), three days
[5] = Homo sapiens, HL-60, 72 h, Example 4A, Table II, 3 μM Cn-D-t-ANPPD (C2-ceramide concentration not given), three days, read-out: CELL GROWTH (% OF CONTROL)
[6] = Example 3A, 3 μM Cn-L-t-APPD, three days

| Structure (SMILES) | activity at 3 µM (HL-60 cells [1]; [5]) | cell growth, % of control (HL-60 cells [1]; [6]) | cell density (HL-60 cells [1]; 3 μM, 60 hours) | cell density (HL-60 cells [1]; 3 μM, 84 hours) | cell density (HL-60 cells [1]; 3 μM, 108 hours) | also measured |
| --- | --- | --- | --- | --- | --- | --- |
| CCCCCCCCCCCCCC(=O)N[C@@H](C)[C@H](O)c1ccccc1 (relative stereo) [C14-DL-e-APP-1] | – | – | – | – | – | cell growth, % of control (HL-60 cells [1]; [3]): 60% |
| CCCCCCCCCCCCC/C=C/[C@@H](O)[C@H](CO)NC(C)=O [C2-ceramide, N-acetyl-C18-sphingosine, reference compound] | – | – | – | – | – | cell density (HL-60 cells [1]; C2-ceramide, concentration not given, 108 hours): 200000 mL⁻¹; CELL GROWTH (% OF CONTROL) (HL-60 cells [1]; [4]): 20 % OF CONTROL; cell growth, % of control (HL-60 cells [1]; [3]): 20%; H2O2 generation (HL-60 cells [2]; 60 hours): approximately 0.3 nmol H2O2 /10^5 cells; H2O2 generation (HL-60 cells [2]; 108 hours): approximately 0.3 nmol H2O2 /10^5 cells; H2O2 generation, combination (HL-60 cells [2]; 2 μM C2-ceramide in combination with 1,25-dihydroxyvitamin D3): approximately 0.9 nmol/10^5 cells |
| CCCCCC(=O)N[C@H](CO)[C@H](O)c1ccc([N+](=O)[O-])cc1 [C6-D-t-ANPPD] | 70% | – | – | – | – | – |
| CCCCCC(=O)N[C@@H](CO)[C@@H](O)c1ccccc1 [C6-L-t-APPD] | – | 105% | 800000 mL⁻¹ | 1.4e+06 mL⁻¹ | 2.4e+06 mL⁻¹ | – |
| CCCCCCCC(=O)N[C@H](CO)[C@H](O)c1ccc([N+](=O)[O-])cc1 [C8-D-t-ANPPD] | 70% | – | – | – | – | – |
| CCCCCCCC(=O)N[C@@H](CO)[C@@H](O)c1ccccc1 [C8-L-t-APPD] | – | 104% | 800000 mL⁻¹ | 1.4e+06 mL⁻¹ | 2.4e+06 mL⁻¹ | – |
| CCCCCCCCCC(=O)N[C@H](CO)[C@H](O)c1ccc([N+](=O)[O-])cc1 [C10-D-t-ANPPD] | 68% | – | – | – | – | – |
| CCCCCCCCCC(=O)N[C@@H](CO)[C@@H](O)c1ccccc1 [C10-L-t-APPD] | – | 90% | 800000 mL⁻¹ | 1.2e+06 mL⁻¹ | 2e+06 mL⁻¹ | inhibition at 3 µM (HL-60 cells [1]; Homo sapiens, HL-60, 72 h, Example 3A, 3 μM, three days, read-out: reduction of cell growth as compared to a control): ~10% |
| CCCCCCCCCCCC(=O)N[C@H](CO)[C@H](O)c1ccc([N+](=O)[O-])cc1 [C12-D-t-ANPPD] | 4% | – | – | – | – | CELL GROWTH (% OF CONTROL) (HL-60 cells [1]; Example 4A, Table II, 3 μM Cn-D-t-ANPPD (C2-ceramide concentration not given), three days, listed as C12 chain analog): about 4 % OF CONTROL |
| CCCCCCCCCCCC(=O)N[C@@H](CO)[C@@H](O)c1ccccc1 [C12-L-t-APPD] | – | approximately 40% | 300000 mL⁻¹ | 300000 mL⁻¹ | 600000 mL⁻¹ | inhibition of cell growth (in words) (HL-60 cells [1]; 3 μM): able to inhibit cell growth by significant amounts |
| CCCCCCCCCCCCCC(=O)N[C@H](CO)[C@H](O)c1ccc([N+](=O)[O-])cc1 [C14-D-t-ANPPD] | 1% | – | – | – | – | CELL GROWTH (% OF CONTROL) (HL-60 cells [1]; Example 4A, Table II, 3 μM Cn-D-t-ANPPD (C2-ceramide concentration not given), three days, listed as C14 chain analog): about 1 % OF CONTROL; activity at 0.1 µM (HL-60 cells [1]; Homo sapiens, HL-60, 72 h, Example 4B, Table III, 0.1 μM, three days, read-out: CELL GROWTH (% OF CONTROL)): 110%; activity at 0.2 µM (HL-60 cells [1]; Homo sapiens, HL-60, 72 h, Example 4B, Table III, 0.2 μM, three days, read-out: CELL GROWTH (% OF CONTROL)): 112%; activity at 0.3 µM (HL-60 cells [1]; Homo sapiens, HL-60, 72 h, Example 4B, Table III, 0.3 μM, three days, read-out: CELL GROWTH (% OF CONTROL)): 113%; activity at 0.5 µM (HL-60 cells [1]; Homo sapiens, HL-60, 72 h, Example 4B, Table III, 0.5 μM, three days, read-out: CELL GROWTH (% OF CONTROL)): 105%; activity at 1 µM (HL-60 cells [1]; Homo sapiens, HL-60, 72 h, Example 4B, Table III, 1 μM, three days, read-out: CELL GROWTH (% OF CONTROL)): 85%; activity at 2 µM (HL-60 cells [1]; Homo sapiens, HL-60, 72 h, Example 4B, Table III, 2 μM, three days, read-out: CELL GROWTH (% OF CONTROL)): 12%; activity at 3 µM (HL-60 cells [1]; Homo sapiens, HL-60, 72 h, Example 4B, Table III, 3 μM, three days, read-out: CELL GROWTH (% OF CONTROL)): 3%; activity at 4 µM (HL-60 cells [1]; Homo sapiens, HL-60, 72 h, Example 4B, Table III, 4 μM, three days, read-out: CELL GROWTH (% OF CONTROL)): 2%; IC50 (HL-60 cells [1]; Homo sapiens, HL-60, 72 h, Example 4B, three days, read-out: concentration for 50% inhibition of cell growth): ~1500 nM |
| CCCCCCCCCCCCCC(=O)N[C@H](C)[C@H](O)c1ccccc1 [C14-D-t-APP-1] | – | – | – | – | – | cell growth, % of control (HL-60 cells [1]; [3]): 49% |
| CCCCCCCCCCCCCC(=O)N[C@@H](CO)Cc1ccccc1 [C14-DAPP-3] | – | – | – | – | – | cell growth, % of control (HL-60 cells [1]; [3]): 14% |
| CCCCCCCCCCCCCC(=O)N[C@H](CO)Cc1ccccc1 [C14-LAPP-3] | – | – | – | – | – | cell growth, % of control (HL-60 cells [1]; [3]): 15% |
| CCCCCCCCCCCCCCCC(=O)N[C@H](CO)[C@H](O)c1ccc([N+](=O)[O-])cc1 [C16-D-t-ANPPD] | 5% | – | – | – | – | CELL GROWTH (% OF CONTROL) (HL-60 cells [1]; [4]): ~5 % OF CONTROL |
| CCCCCCCCCCCCCCCC(=O)N[C@@H](CO)[C@@H](O)c1ccccc1 [C16-L-t-APPD] | – | ~65% | 400000 mL⁻¹ | 700000 mL⁻¹ | 1.2e+06 mL⁻¹ | inhibition of cell growth (in words) (HL-60 cells [1]; 3 μM): able to inhibit cell growth by significant amounts |
| CCCCCCCCCCCCCCCCCC(=O)N[C@H](CO)[C@H](O)c1ccc([N+](=O)[O-])cc1 [C18-D-t-ANPPD] | 82% | – | – | – | – | – |
| CCCCCCCCCCCCCCCCCC(=O)N[C@@H](CO)[C@@H](O)c1ccccc1 [C18-L-t-APPD] | – | 116% | 800000 mL⁻¹ | 1.4e+06 mL⁻¹ | 2.3e+06 mL⁻¹ | – |
